One test deals with SERT and NET. Conditions: cited from earlier work.
In test [1] the target is T1, SERT (Homo sapiens, UniProt P31645). Kind of test: hSERT membrane radioligand binding assay (3H-citalopram). Further details: expressed in transfected cells; host or cells: HEK-293. Conditions: hSERT membranes (HEK-293), 1.0 nM 3H-citalopram; for Ki: read-out: SERT pKi (converted). An outline of the steps: (§1)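 HEK-293 membranes stably expressing hNET or hSERT; inhibition of ³H-nisoxetine (hNET) or ³H-citalopram (hSERT) binding in 50 mM Tris-HCl, 120 mM NaCl, 5 mM KCl, pH 7.4, 60 min at 22 °C. Filtration, scintillation counting; nonspecific with 1 μM desipramine (NET) or 1 μM duloxetine (SERT). pKi via Cheng-Prusoff from IC50 and radioligand Kd.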
T1 sequence (P31645 whole entry): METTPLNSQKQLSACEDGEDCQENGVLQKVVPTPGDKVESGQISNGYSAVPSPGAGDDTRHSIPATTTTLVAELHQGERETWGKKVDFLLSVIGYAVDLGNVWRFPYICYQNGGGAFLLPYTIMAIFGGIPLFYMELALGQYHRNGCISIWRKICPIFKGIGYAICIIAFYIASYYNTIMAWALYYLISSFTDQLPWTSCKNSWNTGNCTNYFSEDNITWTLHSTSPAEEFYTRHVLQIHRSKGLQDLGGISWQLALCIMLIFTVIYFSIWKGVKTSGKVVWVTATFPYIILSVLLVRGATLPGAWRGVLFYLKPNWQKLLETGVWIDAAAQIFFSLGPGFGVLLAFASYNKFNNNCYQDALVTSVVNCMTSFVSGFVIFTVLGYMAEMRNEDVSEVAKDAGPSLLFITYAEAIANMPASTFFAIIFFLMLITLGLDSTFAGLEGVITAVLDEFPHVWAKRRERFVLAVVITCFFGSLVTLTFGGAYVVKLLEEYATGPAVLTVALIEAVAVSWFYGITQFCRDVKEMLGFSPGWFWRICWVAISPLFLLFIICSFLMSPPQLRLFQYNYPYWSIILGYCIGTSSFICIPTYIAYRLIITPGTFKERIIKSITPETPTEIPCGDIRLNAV

The target of test [2] is T2, NET (Homo sapiens, UniProt P23975). Kind of test: hNET membrane radioligand binding assay (3H-nisoxetine). Also on record: expressed in transfected cells; host or cells: HEK-293. Conditions: hNET membranes (HEK-293), 1.0 nM 3H-nisoxetine; read-out: NET pKi (converted). An outline of the steps:
as §1

Test [3] concerns the target T1, SERT. Kind of test: hSERT neurotransmitter uptake assay (3H-5-HT). Further details: expressed in transfected cells; host or cells: HEK-293. Conditions: serotonin reuptake inhibition, HEK-293 hSERT cells, 3H-5-HT (no asterisk); read-out: SERT pIC50 (converted). Format: cell-based. As for the experimental part:
(§2) Neurotransmitter uptake assays were used to measure inhibition of ^3H-serotonin (^3H-5-HT), ^3H-norepinephrine (^3H-NE), and ^3H-dopamine (^3H-DA) uptake into cells expressing the respective transporter (hSERT, hNET or hDAT) in order to determine the pIC50 values of test compounds at the transporters.
(§3) HEK-293 derived cell lines stably-transfected with hSERT, hNET, or hDAT, respectively, were grown in DMEM medium supplemented with 10% dialyzed FBS (for hSERT) or FBS (for hNET and hDAT), 100 μg/ml penicillin, 100 μg/ml streptomycin, 2 mM L-glutamine and 250 μg/ml of the aminoglycoside antibiotic G418 (for hSERT and hNET) or 800 ug/ml (for hDAT), in a 5% CO2 humidified incubator at 37° C. When cultures reached 80% confluence, the cells were washed thoroughly in PBS (without Ca^2+ and Mg^2+) and lifted with 5 mM EDTA in PBS. Cells were harvested by centrifugation at 1100 rpm for 5 minutes, washed once by resuspension in PBS, then centrifuged. The supernatant was discarded and the cell pellet resuspended, by gentle trituration, in room temperature Krebs-Ringer bicarbonate buffer containing HEPES (10 mM), CaCl2 (2.2 mM), ascorbic acid (200 μM) and pargyline (200 μM), pH 7.4. The final concentration of cells in the cell suspension was 7.5×10^4 cells/ml, 1.25×10^5 cells/ml, and 5.0×10^4 cells/ml for SERT, NET, and DAT cell lines, respectively.
(§4) Neurotransmitter uptake assays were performed in a 96-well assay plate in a total volume of 400 μl assay buffer (Krebs-Ringer bicarbonate buffer containing HEPES (10 mM), CaCl2 (2.2 mM), ascorbic acid (200 μM) and pargyline (200 μM), pH 7.4) with 1.5×10^4 and 2.5×10^4 cells, for SERT, NET, and DAT, respectively. […] Stock solutions (10 mM in DMSO) of test compound were prepared and serial dilutions prepared using 50 mM Tris-HCl, 120 mM NaCl, 5 mM KCl, pH 7.4, 0.1% BSA, 400 μM ascorbic acid. Test compounds were incubated for 30 minutes at 37° C. with the respective cells, prior to addition of radiolabeled neurotransmitter, ^3H-5-HT (20 nM final concentration), ^3H-NE (50 nM final concentration) or ^3H-DA (100 nM final concentration). Non-specific neurotransmitter uptake was determined in the presence of 2.5 μM duloxetine, 2.5 μM desipramine, or 10 uM GBR-12909 (each in Dilution Buffer) for the hSERT, hNET, or hDAT assays, respectively.
(§5) Following a 10 minute incubation, at 37° C., with radioligand, the cells were harvested by rapid filtration over a 96-well UniFilter GF/B plate, pretreated with 1% BSA, and washed 6 times with 650 μl wash buffer (ice cold PBS). Plates were dried overnight at 37° C., ˜45 μl of MicroScint™-20 (Perkin Elmer) added and incorporated radioactivity quantitated via liquid scintillation spectroscopy Inhibition curves were analyzed using GraphPad Prism Software package (GraphPad Software, Inc., San Diego, Calif.). IC50 values were generated from concentration response curves using the Sigmoidal Dose Response (variable slope) algorithm in Prism GraphPad.

Test [4] addresses T2, NET. Kind of test: hNET neurotransmitter uptake assay (3H-NE). Format: cell-based. Further details: expressed in transfected cells; host or cells: HEK-293. Conditions: norepinephrine reuptake inhibition, HEK-293 hNET cells, 3H-NE (no asterisk); read-out: NET pIC50 (converted). As to the method: as §2, §3, §4, §5

The structures appear in SMILES notation.

T2 sequence (P23975 whole entry): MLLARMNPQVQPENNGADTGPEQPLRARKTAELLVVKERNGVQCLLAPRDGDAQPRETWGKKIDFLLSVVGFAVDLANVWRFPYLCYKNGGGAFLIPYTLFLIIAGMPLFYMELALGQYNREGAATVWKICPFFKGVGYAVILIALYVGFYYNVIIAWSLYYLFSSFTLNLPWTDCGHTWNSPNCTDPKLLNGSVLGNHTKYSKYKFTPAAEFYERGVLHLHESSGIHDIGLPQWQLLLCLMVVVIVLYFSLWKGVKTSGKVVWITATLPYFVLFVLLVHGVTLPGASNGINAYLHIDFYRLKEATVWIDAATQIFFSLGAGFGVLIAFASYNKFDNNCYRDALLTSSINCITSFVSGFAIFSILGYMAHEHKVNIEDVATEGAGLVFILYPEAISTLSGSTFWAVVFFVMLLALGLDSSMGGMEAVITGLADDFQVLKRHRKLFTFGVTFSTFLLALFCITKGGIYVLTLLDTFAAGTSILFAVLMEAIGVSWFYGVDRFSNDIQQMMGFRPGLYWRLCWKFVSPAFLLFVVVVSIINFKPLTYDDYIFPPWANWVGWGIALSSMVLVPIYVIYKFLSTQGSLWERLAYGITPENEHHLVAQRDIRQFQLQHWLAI

For `CCN(CC)C(=O)C1(c2ccccc2)CC1CN` (stereo not shown) [milnacipran], in the test with SERT and NET, the “selectivity (measured as pKi) for SERT over NET” value is listed as 2.5 fold.

For the molecule `COCC(Oc1cccc(Cl)c1Cl)C1CCNC1` (stereo not shown) [Example 4-5, 3-[1-(2,3-Dichlorophenoxy)-2-methoxyethyl]pyrrolidine], the Ki on SERT [1] and at NET [2] was at most 0.01 µM throughout. Further, the IC50 at SERT [3] was at most 0.1 µM; on NET [4], at most 0.01 µM.

Consider `Clc1cc(Cl)cc(O[C@@H](C2CCOCC2)[C@@H]2CCNC2)c1` [Example 13-30, (R)-3-[(S)-(3,5-Dichlorophenoxy)(tetrahydropyran-4-yl)methyl]pyrrolidine], for which the Ki on SERT [1] and on NET [2] was at most 0.01 µM throughout. In addition, the IC50 at SERT [3] and at NET [4] was at most 0.01 µM in each case.

On to `Clc1cccc(O[C@@H](C2CCOCC2)[C@@H]2CCNC2)c1Cl` [Example 12, (R)-3-[(S)-(2,3-Dichlorophenoxy)(tetrahydropyran-4-yl)-methyl]pyrrolidine], for which the Ki on SERT [1] and at NET [2] was at most 0.01 µM each time. Also, the IC50 on SERT [3] and on NET [4] was at most 0.01 µM each time.

As for `COC[C@H](Oc1ccc(Cl)cc1Cl)[C@H]1CCNC1` [Example 3, (S)-3-[(R)-1-(2,4-Dichlorophenoxy)-2-methoxyethyl]pyrrolidine], the Ki at SERT [1] and on NET [2] was at most 0.01 µM throughout. The IC50 at SERT [3] and at NET [4] was at most 0.01 µM in each case.

`Clc1cc(Cl)cc(O[C@H](C2CCOCC2)[C@@H]2CCNC2)c1` [Example 13-29, (R)-3-[(R)-(3,5-Dichlorophenoxy)(tetrahydropyran-4-yl)methyl]pyrrolidine]: the Ki on SERT [1] and at NET [2] was at most 0.01 µM throughout. Further, the IC50 at SERT [3] and at NET [4] was at most 0.1 µM in each case.

In the case of `Clc1cccc(O[C@H](C2CCOCC2)[C@H]2CCNC2)c1Cl` [Example 13-12, (S)-3-[(R)-(2,3-Dichlorophenoxy)(tetrahydropyran-4-yl)methyl]pyrrolidine], the Ki at SERT [1] and on NET [2] was at most 0.01 µM each time. In addition, the IC50 at SERT [3] and on NET [4] was at most 0.01 µM in each case.

With `FC(F)(F)c1c(Cl)cccc1O[C@H](C1CCOCC1)[C@@H]1CCNC1` [Example 13-20, (R)-3-[(R)-(3-Chloro-2-trifluoromethylphenoxy)(tetrahydropyran-4-yl)-methyl]-pyrrolidine], the Ki at SERT [1] and on NET [2] was at most 0.01 µM throughout. Moreover, the IC50 at SERT [3] is at most 0.1 µM; on NET [4], at most 0.01 µM.

Regarding `Clc1ccccc1O[C@H](C1CCOCC1)[C@H]1CCNC1` [Example 13-4, (S)-3-[(R)-(2-Chlorophenoxy)(tetrahydropyran-4-yl)methyl]pyrrolidine], the Ki at SERT [1] is at most 0.01 µM; at NET [2], at most 0.1 µM. For the same molecule, the IC50 on SERT [3] and on NET [4] was at most 0.1 µM in each case.

In the case of `COC[C@@H](Oc1cccc(Cl)c1Cl)[C@H]1CCNC1` [Example 4-9, (S)-3-[(S)-1-(2,3-Dichlorophenoxy)-2-methoxyethyl]pyrrolidine], the Ki on SERT [1] and at NET [2] was at most 0.01 µM each time. Also, the IC50 at SERT [3] and on NET [4] was at most 0.01 µM throughout.

Take `Clc1ccccc1O[C@@H](C1CCOCC1)[C@H]1CCNC1` [Example 13-1, (S)-3-[(S)-(2-Chlorophenoxy)(tetrahydropyran-4-yl)methyl]pyrrolidine]: the values for the Ki at SERT [1] and on NET [2] were at most 0.1 µM and at most 0.01 µM, respectively. In addition, the IC50 at SERT [3] was at most 1 µM; on NET [4], at most 0.01 µM.

For the molecule `COCCC(Oc1ccc(Cl)cc1C)C1CCNC1` (single isomer, unassigned) [5 (2nd peak)], the “SERT pKi” value on SERT [1] is “≧8.0”. Moreover, the Ki on NET [2] was at most 0.01 µM. The IC50 on SERT [3] and on NET [4] was at most 0.01 µM in each case.

For the molecule `COC[C@H](Oc1cccc(Cl)c1C)[C@H]1CCNC1` [Example 4-16, (S)-3-[(R)-1-(3-Chloro-2-methylphenoxy)-2-methoxyethyl]pyrrolidine], the Ki at SERT [1] and on NET [2] was at most 0.01 µM throughout. The IC50 at SERT [3] and on NET [4] was at most 0.01 µM each time.

For the molecule `CNCC[C@H](Oc1cccc2ccccc12)c1cccs1` [duloxetine], the “affinity for SERT relative to NET” value in the test with SERT and NET (Vaishnavi et al. (2004)) is “higher affinity for SERT relative to NET”. For the same molecule, the “selectivity (measured as pKi) for SERT over NET” value in the test on SERT and NET was 10 fold.

As to `COC[C@@H](Oc1cccc(Cl)c1C)[C@H]1CCNC1` [Example 4-15, (S)-3-[(S)-1-(3-Chloro-2-methylphenoxy)-2-methoxyethyl]pyrrolidine], the Ki on SERT [1] and at NET [2] was at most 0.01 µM in each case. The IC50 on SERT [3] is at most 0.1 µM; at NET [4], at most 0.01 µM.

In the case of `COCC(Oc1ccc(Cl)cc1C)C1CCNC1` (stereo not shown) [Example 4-26, 3-[1-(4-Chloro-2-methylphenoxy)-2-methoxyethyl]pyrrolidine], the Ki at SERT [1] and on NET [2] was at most 0.01 µM throughout. Further, the IC50 on SERT [3] was at most 0.1 µM; at NET [4], at most 0.01 µM.

With `Clc1cccc(O[C@H](C2CCOCC2)[C@@H]2CCNC2)c1Cl` [Example 13-13, (R)-3-[(R)-(2,3-Dichlorophenoxy)(tetrahydropyran-4-yl)methyl]pyrrolidine], the Ki at SERT [1] and at NET [2] was at most 0.01 µM throughout. The values for the IC50 at SERT [3] and on NET [4] were at most 0.1 µM and at most 0.01 µM, respectively.

Regarding `COCC(Oc1cccc(Cl)c1C(F)(F)F)C1CCNC1` (stereo not shown) [Example 4-18, 3-[1-(3-Chloro-2-trifluoromethylphenoxy)-2-methoxyethyl]pyrrolidine], the Ki on SERT [1] and at NET [2] was at most 0.01 µM each time. For the same molecule, the results for the IC50 on SERT [3] and on NET [4] were at most 0.1 µM and at most 0.01 µM, respectively.

With `COC[C@@H](Oc1ccc(Cl)cc1Cl)[C@H]1CCNC1` [Example 4-23, (S)-3-[(S)-1-(2,4-Dichlorophenoxy)-2-methoxyethyl]pyrrolidine], the Ki at SERT [1] is at most 0.01 µM; on NET [2], at most 0.1 µM. In addition, the results for the IC50 on SERT [3] and at NET [4] were at most 0.01 µM and at most 0.1 µM, respectively.

In the case of `CNCC[C@@H](Oc1ccccc1C)c1ccccc1` [Atomoxetine], in the test on SERT and NET, the NET selective is 10 fold.

As to `Fc1cccc(O[C@H](C2CCOCC2)[C@@H]2CCNC2)c1Cl` [Example 13-16, (R)-3-[(R)-(2-Chloro-3-fluorophenoxy)(tetrahydropyran-4-yl)methyl]pyrrolidine], the Ki at SERT [1] and at NET [2] was at most 0.01 µM in each case. For the same molecule, the IC50 on SERT [3] was at most 0.1 µM; at NET [4], at most 0.01 µM.

Source of the values: patent US8455665B2, “3-phenoxymethylpyrrolidine compounds” (Theravance, Inc., priority 2009, dated 2013).
